In patent US8785483B2, “Methods for treating COPD” (The Board of Regents of the University of Texas System, priority 2010, dated 2014):

Columns and labels:
Muc5B = assay: Western blot of Muc5B in IL-13-treated SAEC monolayer; assay type: cell-based, human; details: IL-13 48 h, immunoblotting
Experimental: FIGS. 6A-6B. AR inhibition prevents IL-13-induced expression of Mucin and transcription factor SPDEF in airway epithelial cell monolayer. (A) The airway epithelial cell monolayer at ALI was serum starved without or with fidarestat and incubated with IL-13 for 18 h. Total RNA was isolated and subsequently RT-PCR was performed to assess the expression of Muc5AC and SPDEF. The bar diagrams show densitometric analysis of the corresponding blots (n=4). *p<0.001 vs Control; **p<0.001 vs IL-13; (B) The monolayer of ciliated airway cells at ALI was treated with AR inhibitor for 24 h and subsequently incubated with IL-13 for 24 or 48 h. At the end of incubation, cell lysate was prepared and subjected to western blotting using antibodies against Muc5AC, Muc5B, and SPDEF. The membranes were stripped and re-probed with antibodies against GAPDH to show the equal loading of protein. A representative blot is shown (n=4). *p<0.0001 vs Control; **p<0.001 vs IL-13. […] Protein levels were determined using Bradford reagent (Biorad, Hercules, Calif.). […] The blots were then washed, exposed to HRP-conjugated secondary antibodies (1:5,000 dilution) for 1 h, and the antigen-antibody complex was detected by enhanced chemiluminescence (Amersham Pharmacia Biotech, Piscataway, N.J., USA). […]

SAEC = assay: Cytokines, chemokines and growth factors by Milliplex in SAEC culture media after CSE; assay type: cell-based, human; details: 24 h after CSE (50%)
Experimental: FIG. 2. CSE-induced changes in cytokine levels in SAEC prevented by aldose reductase (AR) inhibition. *p<0.01 Vs Control; **p<0.05 Vs CSE 50%; #p<0.001 Vs Control; ##p<0.01 Vs CSE 50% Primary human Small Airway Epithelial Cells (SAEC) obtained from Lonza (Walkersville, Md.) were normal human SAEC harvested from distal airspace of donor. The cells were cultured according to the supplier's instructions at 37° C. in humidified atmosphere containing 95% air and 5% CO2 in small airway epithelial basal medium (SABM) with supplements containing 52 μg/ml bovine pituitary extract, 0.5 ng/ml human recombinant epidermal growth factor (EGF), 0.5 μg/ml epinephrine, 1 μg/ml hydrocortisone, 10 μg/ml transferrin, 5 μg/ml insulin, 0.1 ng/ml retinoic acid (RA), 6.5 ng/ml triiodothyronine, 50 μg/ml Gentamicin/Amphotericin-B (GA-1000), and 50 μg/ml fatty acid-free bovine serum albumin (BSA). Research-grade cigarettes (1R3F) with a filter from the Kentucky Tobacco Research and Development Center at the University of Kentucky (Lexington, Ky.) were smoked to 0.5 cm above the filter in a fume hood, using a modification of the method developed by Carp and Janoff (Am Rev Respir Dis. 1978; 118(3):617-621). […] The levels of cytokines and chemokines in the supernatant were determined by Milliplex MAP kits according to the manufacturer's instructions (Millipore Corporation, Bellerica, Mass.)).

NC(=O)[C@@H]1C[C@]2(NC(=O)NC2=O)c2cc(F)ccc2O1 [fidarestat, (2S,4S)-2-aminoformyl-6-fluoro-spiro[chroman-4,4′-imidazolidine]-2′,5′-dione]
prevention of IL-13-induced increase in Muc5B protein (Muc5B): ~50% | prevention of CSE-induced increase in chemokines (G-CSF, MCP-1, GM-CSF, IP-10) and growth factors (TGF-α, VEGF) (SAEC): more than 50% | prevention of CSE-induced increase in cytokines (IL-1a, IL-8, TNF-α) (SAEC): significantly (p<0.05 and 0.01) prevented
